Legend:
[1] = test system: cultured human bladder smooth muscle cells; experiment: Voltage clamp recording of outward current, human cells; assay type: cell-based; conditions: human bladder smooth muscle cells, FIG. 3d
Method: (§1) Single cell recordings are performed with a List-Medical EPC-7 patch clamp amplifier (Adams & List Assoc., Westbury, N.Y.). Pipette electrodes had tip resistances of 2–4 MΩ and are filled with the following composition (mM): KCl (126.0), MgCl2.6H2O (4.5), ATP Mg salt (4.0), GTP tris salt (0.3), creatine PO4 (14.0), D-glucose (9.0), EGTA (9.0), HEPES (9.0). The pH is adjusted to 7.4 with KOH. Signals are acquired (3 kHz high frequency cut-off, 12 bit resolution) using a 586-based personal computer.
Whole cell recordings are made using broken patch access. Currents are evoked using either voltage steps (Vh=−50; Vt=−60 to 40 mV) or voltage ramps (−60 to 40 mV at 3.3 mV/sec.). The exact voltage clamp protocols are well known in the art. After stability is achieved control currents are recorded. Next, test compound is added to the superfusate. Currents are recorded for 5 to 10 minutes or until compound effects reach steady state. This is followed either by washout or addition of antagonists (linopirdine, XE-991) to the superfusate.
Cellular electrophysiological studies were conducted using both voltage and current clamp techniques (Hammill, O., P., Marty, A., Neher, E., Sakmann, B. & Sigworth, F. J.: Improved patch-clamp techniques for high-resolution current recordings from cells and cell-free membrane patches. Pflugers Arch 391: 85–100 (1981)) from Sprague-Dawley rat (200–400 grams) bladders as previously described, (Wojdan, A., Freeden, C., Woods, M., Oshiro, G., Spinelli, W. et al., J. Pharmacol Exp Therap 289: 1410–1418 (1999)) and from a human bladder, primary cell culture (Colnetics, San Diego, Calif.). In rat cells, the average, control resting membrane potential (RMP) was −29.0±4.5 mV. […]
Rat bladder strips were isolated and prepared as previously described (Wojdan, A., Freeden, C., Woods, M., Oshiro, G., Spinelli, W. et al., J Pharmacol ExpTherap 289:1410–1418 (1999)). […] Message for KCNQ subunits was probed using quantitative rtPCR on an ABI PRISM 7700 Sequence Detection System (TAQMAN). […]

[2] = test system: isolated rat bladder smooth muscle cell; experiment: Voltage clamp recording of outward current, rat cells; assay type: cell-based; conditions: test potentials between −50 and 80 mV; n=5
From the text: Rat detrusor cells are isolated in a manner previously described for guinea-pig detrusor (Sheldon J H, Norton N W and Argentieri T M (1997) Inhibition of guinea pig detrusor contraction by NS-1619 is associated with activation of BKCa and inhibition of calcium currents. J Pharmacol Exp Thera 283(3): 1193–1200). Male Sprague-Dawley rats (Charles River, Wilmington, Mass.; 200–400 grams) are euthanized by CO2 inhalation and exsanguination. Their urinary bladders are rapidly removed and placed in 37° C. physiological solution with the following composition (mM): Na glutamate (80.0), NaCl (54.7), KCl (5.0), NaHCO3 (25.0), MgCl2.2H2O (2.5), D-glucose (11.8) and CaCl2 (0.2) gassed with O2—CO2, 95%/5% for a final pH of 7.4. The dome of the bladder is isolated from the trigone region and the mucosa is removed. This tissue is then cut into 2–3 mm wide strips and placed into fresh buffer for 1 hour. Tissues are then transferred into 10 ml of an isolation buffer containing the above composition plus collagenase type VIII (1.0 mg/ml) and pronase (0.25 mg/ml). After 10 minutes the isolation buffer is replaced with fresh isolation buffer for an additional 10 min. The tissue is then washed 3 times in fresh collagenase and pronase free solution and stored at room temperature until studied. Cells for study are prepared by triturating 1–2 pieces of detrusor tissue in 2 ml of fresh isolation buffer for 5 minutes with a polished Pasteur pipette, (tip diameter ˜1.5 mm) attached to a modified Harvard Respirator pump (Harvard Apparatus, Southnatic, Mass.) at a rate of 20×/min. with an approximate volume of 5 ml. Cells are then placed on a microscope stage in a temperature regulated tissue bath at 32.5° C. and continually superfused with PSS.
as §1
Whole cell recordings are made using broken patch access. Currents are evoked using either voltage steps (Vh=−50; Vt=−60 to 40 mV) or voltage ramps (−60 to 40 mV at 3.3 mV/sec.). The exact voltage clamp protocols are well known in the art. After stability is achieved control currents are recorded. Next, test compound is added to the superfusate. Currents are recorded for 5 to 10 minutes or until compound effects reach steady state. This is followed either by washout or addition of antagonists (linopirdine, XE-991) to the superfusate. […]

CCOC(=O)Nc1ccc(NCc2ccc(F)cc2)cc1N [retigabine, N-[2-amino-4-(4-fluorobenzylamino)-phenyl]carbamic acid ethyl ester] was tested, and the “effect on outward current” value [1] was “increased outward currents”, the “effect on outward current” value ([1]; listed as Retigabine) was “increased an outward current” and the “effect on outward current” value [2] was “increase in outward current”.

Reference: patent US7160684B2, “Methods of selecting compounds for modulation of bladder function” (Wyeth, priority 2000, dated 2007)
